The target in assay [1] is T1, protein-farnesyl transferase (PFT) (Rattus norvegicus, UniProt Q02293+Q04631).
T1 construct: PFT derived from rat brain (Q-sepharose fraction); from tissue; host or cells: rat brain (soluble fraction, 30-50% ammonium sulfate cut, Q-Sepharose fraction)
Briefly: Inhibitory activities against protein-farnesyl transferase (PFT). The class given is biochemical. The note with it: PFT derived from rat brain; prenyl acceptor H-ras protein or biotin-added Lys-Thr-Ser-Cys-Val-Ile-Met; 37° C., 20 minutes; read-out: 50% inhibitory concentrations (IC50) against PFT activities. The procedure: Pharmacological Test 1 (Inhibitory activities against protein-farnesyl transferase)
PFT was separated in such a manner that a soluble fraction of rat s brain was fractionated by means of 30%-50% saturated ammonium sulfate, further dialyzed and then subjected to column chromatography by Q-sepharose™ (manufactured by Pharmacia) (Reiss et al., Cell, vol. 62, pp. 81-88 (1990)).
(2) Method for measuring PFT activities
Measurement of PFT activities was conducted by using, as a prenyl acceptor, H-ras protein or a peptide corresponding to the C-terminal 7 amino acid residues of K-rasB protein which had biotin added to the N-terminal (biotin-added Lys-Thr-Ser-Cys-Val-Ile-Met) and, as a prenyl donor, [^3 H]-labeled farnesyl pyrophosphate (FPP) (Reiss et al., Methods: A Companion to Methods in Enzymology, vol. 1, No. 3, pp. 241-245 (1990)). […]
The enzymatic reaction product containing H-ras protein as the prenyl acceptor, was analyzed by SDS-PAGE (sodium dodecyl sulfate/polyacrylamide gel electrophoresis). […]
The measurement of PFT activities using H-ras protein as the prenyl receptor, was also analyzed by a rapid separate method. […]

Assay [2] concerns farnesyl-modification of Ras protein in NIH3T3 cells transformed by activated ras gene. Briefly: Inhibitory activities against farnesyl-modification of Ras protein in NIH3T3 cells transformed by activated ras gene. The class given is cell-based. Particulars: Mus musculus, 24 hours, read-out: 50% inhibitory concentrations (IC50) against farnesyl-modification of Ras protein. The procedure:
PHARMACOLOGICAL TEST EXAMPLE 2 (Inhibitory activities against farnesyl-modification of Ras protein)
Using the compounds of the present invention, inhibitory activities against farnesyl-modification of Ras protein in NIH3T3 cells transformed by activated ras gene, were measured.
The NIH3T3 cells transformed by activated ras gene, were seeded on a culture plate and cultured for 3 days. Then, a compound of the present invention in a predetermined concentration was added to the culture. In accordance with the method disclosed in J. Biol. Chem., vol. 268, p. 18415 (1993), the cells were cultured for 24 hours and then taken off from the plate, and the cells were dissolved. After centrifugal separation for 5 minutes under 12000 g, the supernatant was used as a cell extract. The cell extract was subjected to SDS polyacrylamide gel electrophoresis to separate farnesyl-modified Ras protein and non-farnesyl-modified Ras protein. The protein on the gel was transferred onto a nitrocellulose membrane, and an anti-Ras protein antibody was reacted as a probe (primary antibody reaction). An anti-primary antibody, a peroxidase inclusion (secondary antibody), was reacted, and then Ras protein was detected by a chemical fluorescence enhancing kit. The proportion of non-farnesyl-modified Ras protein was quantified by a densitometer and taken as the inhibitory activity. […]

In the case of `CCOC(=O)C(CC(=O)O)=C(O)C(=O)N(CC#Cc1ccccc1)[C@H](C)[C@H](Cc1ccc(C(=O)Nc2ccccc2)o1)c1ccc2c(c1)OCO2` (relative stereo) [Example 17, 3-(ethoxycarbonyl)-4-hydroxy-4-[N [(1RS,2RS)-1-methyl-2-(3,4-methylenedioxyphenyl)-3-{5-(phenylcarbamoyl)-2-furyl}propyl]-N-(3-phenyl-2-propynyl)carbamoyl]-3-butenoic acid], the IC50 in assay [1] was 1.7 nM; in assay [2], 4.3 nM.

Consider `C[C@H]([C@H](Cc1ccc(C(=O)Nc2ccccc2)o1)c1ccc2c(c1)OCO2)N(C/C=C/c1ccccc1)C(=O)C(O)=C(CC(=O)O)C(=O)OC(C)(C)C` [Example 1, 3-(tert-butoxycarbonyl)-4-hydroxy-4-[N-[(1R,2R)-1-methyl-2-(3,4-methylenedioxyphenyl)-3-{5-(phenylcarbamoyl)-2-furyl}propyl]-N-{(E)-3-phenyl-2-propenyl}carbamoyl]-3-butenoic acid], for which the results for the IC50 in assay [1] and in assay [2] were 0.74 nM and 1.3 nM, respectively.

The values are drawn from patent US5981573A, “N,N-disubstituted amic acid derivatives” (Banyu Pharmaceutical Co., Ltd., priority 1996, dated 1999).
